Laboratory results taken from PubChem BioAssay (NCI).
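In this assay, cells in 96-well plates receive the compound at five concentrations for 48 hours. Endpoints are linearly interpolated between the surrounding concentrations. GI50 is the concentration that inhibits growth by half. TGI: concentration producing complete growth inhibition.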

Assays:
Assay in all cases: inhibition of tumour cell growth, NCI panel, 48 h
BT-549 breast = tested on: BT-549 breast
KM12 colon = tested on: KM12 colon
K-562 leukemia = tested on: K-562 leukemia
SR leukemia = tested on: SR leukemia
SK-MEL-2 melanoma = tested on: SK-MEL-2 melanoma
SNB-19 CNS = tested on: SNB-19 CNS
UACC-257 melanoma = tested on: UACC-257 melanoma
SN12C renal = tested on: SN12C renal
SF-295 CNS = tested on: SF-295 CNS
MCF7 breast = tested on: MCF7 breast

Structure (SMILES)	TGI (BT-549 breast)	TGI (KM12 colon)	TGI (K-562 leukemia)	TGI (SR leukemia)	TGI (SK-MEL-2 melanoma)	TGI (SNB-19 CNS)	TGI (UACC-257 melanoma)	TGI (SN12C renal)	TGI (SF-295 CNS)	TGI (MCF7 breast)	GI50 (KM12 colon)	GI50 (SF-295 CNS)
C(=Nc1ccc(-c2nc3ccccc3s2)cc1)c1cccs1	> 100 µM	> 100 µM	> 100 µM	> 100 µM	> 100 µM	> 100 µM	> 100 µM	> 100 µM	68.8 µM	–	–	–
CCC1OC2(C)CC(C#N)(C#N)C1(C#N)C(=N)O2 (stereo not drawn)	> 100 µM	> 100 µM	> 100 µM	–	> 100 µM	> 100 µM	> 100 µM	> 100 µM	> 100 µM	> 100 µM	–	–
Cc1ccc(N=Nc2c(O)ccc3ccccc23)c(C)c1	> 100 µM	> 100 µM	> 100 µM	–	> 100 µM	> 100 µM	> 100 µM	> 100 µM	> 100 µM	–	–	–
O=C(CCC(NC(=O)OCc1ccccc1)C(=O)OCc1ccccc1)Nc1cccc(OCc2ccccc2)c1 (stereo not drawn)	–	> 100 µM	52.2 µM	65.5 µM	–	> 100 µM	55 µM	46 µM	> 100 µM	41.3 µM	–	–
O=C(NNC(=O)c1ccc(Cl)cc1NC(=O)C12CC3CC(CC(C3)C1)C2)c1ccc(Cl)cc1	> 100 µM	54.4 µM	> 100 µM	63.8 µM	–	39.4 µM	66.1 µM	> 100 µM	57 µM	87.5 µM	–	–
Cc1c(C(=O)O)sc2nc[nH]c(=O)c12	–	> 100 µM	> 100 µM	–	> 100 µM	> 100 µM	> 100 µM	> 100 µM	> 100 µM	> 100 µM	–	–
CCOC(=O)c1c(SC(=O)c2ccc(Cl)cc2)n(-c2ccccc2)c(=S)n(-c2ccccc2)c1=O	–	> 100 µM	> 100 µM	> 100 µM	–	> 100 µM	> 100 µM	> 100 µM	> 100 µM	> 100 µM	–	–
O=Cc1c2c(cc3c1CC1(C3)Cc3cc4c(c(C=O)c3C1)CCC4)CCC2	–	–	63.7 µM	73 µM	50.8 µM	–	> 100 µM	> 100 µM	> 100 µM	> 100 µM	–	–
Cc1noc(-c2ccc(C(=O)O)[nH]2)c1Br	> 100 µM	> 100 µM	> 100 µM	–	> 100 µM	> 100 µM	> 100 µM	–	> 100 µM	> 100 µM	–	–
C[C@@H]([C@H]1CC[C@@]2(C)[C@@H]3CC[C@@H]4C(=CC3=CC[C@]12C)CC[C@H](N(C)C)C4(C)C)N(C)C	–	> 100 µM	> 100 µM	> 100 µM	–	> 100 µM	> 100 µM	> 100 µM	> 100 µM	> 100 µM	–	–
CSCSCC(CO)NC(=O)/C=C\c1c(C)[nH]c(=O)[nH]c1=O (stereo not drawn)	–	156 µM	111 µM	–	136 µM	197 µM	208 µM	102 µM	209 µM	29.2 µM	10.8 µM	62.1 µM
Nc1ccnc2c1ncn2[C@H]1C[C@H](O)[C@@H](CO)O1	> 100 µM	> 100 µM	–	> 100 µM	> 100 µM	> 100 µM	> 100 µM	> 100 µM	> 100 µM	> 100 µM	–	–
Oc1c(NCn2nc(CCCCCCCCc3nn(CNc4ccc5ccccc5c4O)c(=S)o3)oc2=S)ccc2ccccc12	> 100 µM	> 100 µM	> 100 µM	–	> 100 µM	> 100 µM	> 100 µM	> 100 µM	> 100 µM	> 100 µM	–	–
COc1ccc(-c2nc(-c3cnccn3)n(C/C=C/c3ccccc3)n2)cc1	> 100 µM	> 100 µM	> 100 µM	> 100 µM	–	> 100 µM	> 100 µM	> 100 µM	73.4 µM	> 100 µM	–	–
COc1ccc(NCn2nc(CCCCCCCCc3nn(CNc4ccc(OC)cc4)c(=S)o3)oc2=S)cc1	> 100 µM	> 100 µM	> 100 µM	–	> 100 µM	> 100 µM	> 100 µM	> 100 µM	> 100 µM	> 100 µM	–	–
CC(=O)OC1C2CCC3CC2C2(SCCS2)C31 (stereo not drawn)	–	> 100 µM	> 100 µM	> 100 µM	> 100 µM	> 100 µM	> 100 µM	> 100 µM	> 100 µM	> 100 µM	–	–
COc1cc(/C=C2\N=C(c3ccccc3)N(c3cc4cc(Sc5ccccc5)ccc4[nH]3)C2=O)ccc1O	> 50 µM	> 50 µM	> 50 µM	20.4 µM	–	> 50 µM	> 50 µM	> 50 µM	–	> 50 µM	–	–
CC(=O)c1c(-c2ccco2)c(C#N)c(=S)n(C2OC(CO)C(O)C(O)C2O)c1C (stereo not drawn)	> 100 µM	> 100 µM	> 100 µM	> 100 µM	–	> 100 µM	> 100 µM	> 100 µM	> 100 µM	> 100 µM	–	–
CN1COCN=C1NC#N	–	> 100 µM	> 100 µM	–	> 100 µM	> 100 µM	> 100 µM	> 100 µM	> 100 µM	–	–	–
CCOC(=O)c1cnc2n(c1=O)[C@H]1CCCC[C@@H]1N2	> 100 µM	> 100 µM	> 100 µM	–	> 100 µM	> 100 µM	> 100 µM	> 100 µM	> 100 µM	> 100 µM	–	–
CC(C)(C)OC(=O)NCC(c1c[nH]c2ccccc12)c1c[nH]c2ccccc12	35.1 µM	28.6 µM	–	32.4 µM	32.9 µM	31.1 µM	28.6 µM	32.7 µM	32.8 µM	> 100 µM	–	–
CC12CC(c3ccccc3O1)C(C(=O)Nc1nccs1)C(=O)N2 (stereo not drawn)	> 100 µM	> 100 µM	> 100 µM	–	> 100 µM	> 100 µM	> 100 µM	–	> 100 µM	> 100 µM	–	–
C=C1C(=O)OC2C[C@@]3(C)CCCC(=C)C3CC12 (stereo partly drawn)	–	5.94 µM	–	> 100 µM	12.7 µM	23.4 µM	22 µM	16.7 µM	23.6 µM	–	–	–
COc1c(NC(C)=O)c2ccccc2c2ccccc12	> 100 µM	> 100 µM	> 100 µM	> 100 µM	> 100 µM	> 100 µM	> 100 µM	> 100 µM	> 100 µM	–	–	–
